{
  "source": "patent US20050181032A1",
  "about": "“Metastable pharmaceutical compositions” (Acrux DDS Pty Ltd., priority 2002, published 2005)",
  "origin": "cited, not measured here",
  "data": [
    {"molecule": "C#C[C@]1(O)CC[C@H]2[C@@H]3CCc4cc(O)ccc4[C@H]3CC[C@@]21C", "note": "[EE2, Ethinyl Estradiol]", "values": [
      {"measurement": "LogP", "result": 3.91}
    ]}
  ]
}
